According to PubChem BioAssay (NCI):
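Method: 48-hour compound exposure of cells in 96-well plates, five concentrations, linear interpolation of endpoints. At the GI50, growth is halved. TGI: total growth inhibition.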

Legend:
Test in all cases: NCI anticancer screen, dose series, 48 h
SF-539 CNS = system: SF-539 CNS
UO-31 renal = system: UO-31 renal
MOLT-4 leukemia = system: MOLT-4 leukemia
SK-MEL-2 melanoma = system: SK-MEL-2 melanoma
TK-10 renal = system: TK-10 renal
A498 renal = system: A498 renal
SW-620 colon = system: SW-620 colon
SF-295 CNS = system: SF-295 CNS
SF-268 CNS = system: SF-268 CNS
NCI-H23 lung = system: NCI-H23 lung
UACC-257 melanoma = system: UACC-257 melanoma
HCT-116 colon = system: HCT-116 colon
CCRF-CEM leukemia = system: CCRF-CEM leukemia
HT29 colon = system: HT29 colon
NCI-H522 lung = system: NCI-H522 lung
OVCAR-8 ovarian = system: OVCAR-8 ovarian
OVCAR-4 ovarian = system: OVCAR-4 ovarian
SN12C renal = system: SN12C renal
OVCAR-5 ovarian = system: OVCAR-5 ovarian
SR leukemia = system: SR leukemia
RPMI-8226 leukemia = system: RPMI-8226 leukemia
HL-60(TB) leukemia = system: HL-60(TB) leukemia
KM12 colon = system: KM12 colon
786-0 renal = system: 786-0 renal
ACHN renal = system: ACHN renal
NCI-H226 lung = system: NCI-H226 lung
PC-3 prostate = system: PC-3 prostate
IGROV1 ovarian = system: IGROV1 ovarian
U251 CNS = system: U251 CNS
NCI-H460 lung = system: NCI-H460 lung
UACC-62 melanoma = system: UACC-62 melanoma
OVCAR-3 ovarian = system: OVCAR-3 ovarian
COLO 205 colon = system: COLO 205 colon
HCT-15 colon = system: HCT-15 colon
SK-MEL-5 melanoma = system: SK-MEL-5 melanoma
LOX IMVI melanoma = system: LOX IMVI melanoma
HCC-2998 colon = system: HCC-2998 colon
SK-MEL-28 melanoma = system: SK-MEL-28 melanoma
T-47D breast = system: T-47D breast
HS 578T breast = system: HS 578T breast
DU-145 prostate = system: DU-145 prostate
MCF7 breast = system: MCF7 breast
EKVX NSCLC = system: EKVX NSCLC
NCI/ADR-RES ovarian = system: NCI/ADR-RES ovarian
RXF 393 renal = system: RXF 393 renal
SNB-75 CNS = system: SNB-75 CNS
MDA-MB-231 breast = system: MDA-MB-231 breast
BT-549 breast = system: BT-549 breast
K-562 leukemia = system: K-562 leukemia
SK-OV-3 ovarian = system: SK-OV-3 ovarian
A549 NSCLC = system: A549 NSCLC
M14 melanoma = system: M14 melanoma
CAKI-1 renal = system: CAKI-1 renal
HOP-62 NSCLC = system: HOP-62 NSCLC
MDA-MB-435 = system: MDA-MB-435
HOP-92 NSCLC = system: HOP-92 NSCLC
MALME-3M melanoma = system: MALME-3M melanoma
SNB-19 CNS = system: SNB-19 CNS

SMILES: CN1CCN(Cc2ccc(NC(=O)c3cncc(C#Cc4cnc5ccc(OC6CCOCC6)nn45)c3)cc2C(F)(F)F)CC1
- GI50 (SF-539 CNS): 0.0393 µM
- TGI (SF-539 CNS): 0.526 µM
- GI50 (UO-31 renal): 0.158 µM
- TGI (UO-31 renal): 0.729 µM
- GI50 (MOLT-4 leukemia): 0.0364 µM
- TGI (MOLT-4 leukemia): 0.638 µM
- GI50 (SK-MEL-2 melanoma): 0.0906 µM
- TGI (SK-MEL-2 melanoma): 0.199 µM
- GI50 (TK-10 renal): 0.0907 µM
- TGI (TK-10 renal): 0.227 µM
- GI50 (A498 renal): 0.246 µM
- TGI (A498 renal): 0.797 µM
- GI50 (SW-620 colon): 0.0613 µM
- TGI (SW-620 colon): 0.332 µM
- GI50 (SF-295 CNS): 0.145 µM
- TGI (SF-295 CNS): 1.56 µM
- GI50 (SF-268 CNS): 0.142 µM
- TGI (SF-268 CNS): 0.687 µM
- GI50 (NCI-H23 lung): 0.12 µM
- TGI (NCI-H23 lung): 0.474 µM
- GI50 (UACC-257 melanoma): 0.215 µM
- TGI (UACC-257 melanoma): 0.78 µM
- GI50 (HCT-116 colon): 0.0375 µM
- TGI (HCT-116 colon): 0.228 µM
- GI50 (CCRF-CEM leukemia): 0.0113 µM
- TGI (CCRF-CEM leukemia): 3.13 µM
- GI50 (HT29 colon): 0.0732 µM
- TGI (HT29 colon): 0.317 µM
- GI50 (NCI-H522 lung): 0.088 µM
- TGI (NCI-H522 lung): 0.182 µM
- GI50 (OVCAR-8 ovarian): 0.132 µM
- TGI (OVCAR-8 ovarian): 0.604 µM
- GI50 (OVCAR-4 ovarian): 0.151 µM
- TGI (OVCAR-4 ovarian): 1.19 µM
- GI50 (SN12C renal): 0.0529 µM
- TGI (SN12C renal): 0.408 µM
- GI50 (OVCAR-5 ovarian): 0.257 µM
- TGI (OVCAR-5 ovarian): 1.58 µM
- GI50 (SR leukemia): 0.0378 µM
- TGI (SR leukemia): 0.332 µM
- GI50 (RPMI-8226 leukemia): 0.183 µM
- TGI (RPMI-8226 leukemia): 0.973 µM
- GI50 (HL-60(TB) leukemia): 0.0575 µM
- TGI (HL-60(TB) leukemia): 0.285 µM
- GI50 (KM12 colon): 0.005 µM
- TGI (KM12 colon): 0.305 µM
- GI50 (786-0 renal): 0.244 µM
- TGI (786-0 renal): 0.89 µM
- GI50 (ACHN renal): 0.105 µM
- TGI (ACHN renal): 1.75 µM
- GI50 (NCI-H226 lung): 0.0241 µM
- TGI (NCI-H226 lung): 0.762 µM
- GI50 (PC-3 prostate): 0.144 µM
- TGI (PC-3 prostate): 1.12 µM
- GI50 (IGROV1 ovarian): 0.0562 µM
- TGI (IGROV1 ovarian): 0.503 µM
- GI50 (U251 CNS): 0.142 µM
- TGI (U251 CNS): 0.527 µM
- GI50 (NCI-H460 lung): 0.0674 µM
- TGI (NCI-H460 lung): 0.618 µM
- GI50 (UACC-62 melanoma): 0.127 µM
- TGI (UACC-62 melanoma): 0.732 µM
- GI50 (OVCAR-3 ovarian): 0.123 µM
- TGI (OVCAR-3 ovarian): 0.998 µM
- GI50 (COLO 205 colon): 0.0953 µM
- TGI (COLO 205 colon): 0.302 µM
- GI50 (HCT-15 colon): 0.0953 µM
- TGI (HCT-15 colon): 0.324 µM
- GI50 (SK-MEL-5 melanoma): 0.596 µM
- TGI (SK-MEL-5 melanoma): 1.35 µM
- GI50 (LOX IMVI melanoma): 0.0719 µM
- TGI (LOX IMVI melanoma): 0.42 µM
- GI50 (HCC-2998 colon): 0.149 µM
- TGI (HCC-2998 colon): 0.457 µM
- GI50 (SK-MEL-28 melanoma): 0.256 µM
- TGI (SK-MEL-28 melanoma): 1.05 µM
- GI50 (T-47D breast): 0.543 µM
- TGI (T-47D breast): 2.42 µM
- GI50 (HS 578T breast): 0.105 µM
- TGI (HS 578T breast): 0.648 µM
- GI50 (DU-145 prostate): 0.141 µM
- TGI (DU-145 prostate): 0.769 µM
- GI50 (MCF7 breast): 0.0376 µM
- TGI (MCF7 breast): 0.415 µM
- GI50 (EKVX NSCLC): 0.173 µM
- TGI (EKVX NSCLC): 0.805 µM
- GI50 (NCI/ADR-RES ovarian): 0.348 µM
- TGI (NCI/ADR-RES ovarian): 1.77 µM
- GI50 (RXF 393 renal): 0.0965 µM
- TGI (RXF 393 renal): 0.288 µM
- GI50 (SNB-75 CNS): 0.0178 µM
- TGI (SNB-75 CNS): 0.209 µM
- GI50 (MDA-MB-231 breast): 0.038 µM
- TGI (MDA-MB-231 breast): 0.176 µM
- GI50 (BT-549 breast): 0.537 µM
- TGI (BT-549 breast): 1.51 µM
- GI50 (K-562 leukemia): 0.005 µM
- TGI (K-562 leukemia): 0.702 µM
- GI50 (SK-OV-3 ovarian): 0.316 µM
- TGI (SK-OV-3 ovarian): 1.16 µM
- GI50 (A549 NSCLC): 0.0909 µM
- TGI (A549 NSCLC): 0.562 µM
- GI50 (M14 melanoma): 0.0493 µM
- TGI (M14 melanoma): 0.154 µM
- GI50 (CAKI-1 renal): 0.0437 µM
- TGI (CAKI-1 renal): 0.252 µM
- GI50 (HOP-62 NSCLC): 0.165 µM
- TGI (HOP-62 NSCLC): 0.953 µM
- GI50 (MDA-MB-435): 0.0617 µM
- TGI (MDA-MB-435): 0.603 µM
- GI50 (HOP-92 NSCLC): 0.00944 µM
- TGI (HOP-92 NSCLC): 0.0657 µM
- GI50 (MALME-3M melanoma): 0.0694 µM
- TGI (MALME-3M melanoma): 0.382 µM
- GI50 (SNB-19 CNS): 0.221 µM
- TGI (SNB-19 CNS): 1.64 µM
